For 16 compounds, EC50 results are on record in patent US20240398812A1 (Caraway Therapeutics, Inc., priority 2021, published 2024).

Holding throughout (type): cell-based
One assay deals with human TRPML1 (Homo sapiens, UniProt Q9GZU1). In words: Fluorescent TRPML1 assay (Fluo4-AM calcium fluorescence, HEK-293 Trex cells). In outline:
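Tet-inducible HEK-293 Trex cells stably expressing surface-targeted mutant human TRPML1, induced with 0.5 ug/mL doxycycline overnight, loaded with Fluo4-AM and suspended in Ringer's with 10 mM calcium. Compounds tested from 20 μM to 6 nM final, half-log steps, in triplicate; fluorescence (ex 480/em 540) normalised to plate controls, EC50 by non-linear regression.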

Another assay addresses T1, TRPML2 (Homo sapiens, UniProt Q8IZK6).
T1 construct: expressed in transfected cells
T1 sequence (Q8IZK6 1-566): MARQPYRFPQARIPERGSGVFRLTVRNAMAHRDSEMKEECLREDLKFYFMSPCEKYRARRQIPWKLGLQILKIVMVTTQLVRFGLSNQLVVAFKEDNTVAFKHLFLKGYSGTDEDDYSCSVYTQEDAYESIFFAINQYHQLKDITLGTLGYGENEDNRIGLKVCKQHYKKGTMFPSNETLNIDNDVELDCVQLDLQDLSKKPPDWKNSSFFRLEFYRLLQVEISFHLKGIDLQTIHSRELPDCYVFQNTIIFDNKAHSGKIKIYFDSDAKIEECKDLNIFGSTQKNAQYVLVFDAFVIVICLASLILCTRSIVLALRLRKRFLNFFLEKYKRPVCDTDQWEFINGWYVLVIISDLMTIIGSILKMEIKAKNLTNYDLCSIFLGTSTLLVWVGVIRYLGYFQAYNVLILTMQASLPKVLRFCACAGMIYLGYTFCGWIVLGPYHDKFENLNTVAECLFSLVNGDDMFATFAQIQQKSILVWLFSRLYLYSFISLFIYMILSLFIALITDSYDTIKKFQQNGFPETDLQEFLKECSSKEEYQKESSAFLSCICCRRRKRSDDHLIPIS
Nature of the assay: Fluorescent TRPML2 assay (as for TRPML1). The method, then:
HEK-293 Trex cells were stably transfected with a construct consisting of the human coding sequence for TRPML1 cloned into the tet-inducible plasmid pCDNA5 T/O. Mutations were introduced into the TRPML1 sequence to facilitate expression on the cell surface (Silvia Vergarajauregui, Rosa Puertollano Traffic. 2006 March; 7 (3): 337-353). Briefly, the cells are cultured in 150 mm round tissue culture dishes containing 20 mL of media. The day before the assay the cells are rinsed with DPBS —Ca—Mg and then treated briefly with Trypsin-EDTA. The Trypsin-EDTA is diluted with growth media, and cells are counted. 38×10^6 cells are re-plated into 150 mm round tissue culture dishes in media containing 0.5 ug/mL doxycycline to induce expression of hTRPML1.
The day of the experiment cells are lifted from the plates as above and collected by centrifugation. The cells are then suspended in dye loading buffer consisting of Ringer's solution supplemented with 0.1% Pluronic Acid and 1 micromolar Fluo4-AM dye. Cells are loaded for ˜60 minutes in the dark with occasional mixing. The cells are collected by centrifugation, the loading media aspirated, and the cells resuspended in 25 mL Ringer's solution and incubated ˜60 minutes in the dark. The cells are again collected by centrifugation, rinsed in Ringer's Solution and resuspended to 0.2×10^6 cells/mL in modified Ringer's solution containing 10 mM calcium.
Compounds are dissolved to a concentration of 10 millimolar with DMSO. Compound plates are created by dispensing compounds into 384 well black wall clear bottom plates (Greiner 781091). Positive and negative controls are included on each plate. Typically, different amounts of each compound are tested ranging from 100 nanoMoles (20 micromolar final concentration) decreasing in half-log steps to 31 picoMoles (6 nanomolar final concentration). Each concentration is typically tested in triplicate.
50 microliters of dye-loaded cells are dispensed into each well of the compound assay plate created above. The fluorescence in each well is then determined with an excitation wavelength of 480 nm and an emission wavelength of 540 nm using either a Molecular Devices SpectraMax multimode plate reader or a Hamamatsu FDSS/uCell plate imager.
The resulting fluorescence for each well is exported as an ascii file and loaded into our LIMS for analysis. The percent activity of each compound at each concentration is determined by comparison to the positive and negative control wells included in each plate.
Assays for TRPML2 and TRPML3 were performed as above for TRPML1, by substituting the appropriate TRPML2 or TRPML3 subtype for the TRPML1.
EC50 values were calculated using a non-linear regression of Prism. In the table, “A” indicates an EC50 of less than 100 nM, “B” indicates an EC50 range from 100 nM to 500 nM; “C” indicates an EC50 range from 500 nM to 2 μM; and “D” indicates an EC50 greater than 2 μM.

Another assay concerns the target T2, TRPML3 (Homo sapiens, UniProt Q8TDD5).
T2 construct: expressed in transfected cells
T2 sequence (Q8TDD5 1-553): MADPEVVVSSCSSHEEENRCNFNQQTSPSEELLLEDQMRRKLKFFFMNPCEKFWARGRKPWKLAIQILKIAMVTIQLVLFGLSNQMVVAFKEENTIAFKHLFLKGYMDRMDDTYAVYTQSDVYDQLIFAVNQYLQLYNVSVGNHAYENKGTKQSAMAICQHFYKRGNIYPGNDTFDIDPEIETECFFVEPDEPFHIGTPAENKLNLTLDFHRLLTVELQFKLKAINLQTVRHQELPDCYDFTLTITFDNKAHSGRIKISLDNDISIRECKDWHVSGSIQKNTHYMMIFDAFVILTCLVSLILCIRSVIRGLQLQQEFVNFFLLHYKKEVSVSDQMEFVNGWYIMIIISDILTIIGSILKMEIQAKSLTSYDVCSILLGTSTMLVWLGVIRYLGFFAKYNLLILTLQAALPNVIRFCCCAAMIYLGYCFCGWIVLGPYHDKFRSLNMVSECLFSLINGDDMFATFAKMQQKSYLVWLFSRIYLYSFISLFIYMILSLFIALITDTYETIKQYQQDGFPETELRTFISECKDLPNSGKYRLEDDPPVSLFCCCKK
Nature of the assay: Fluorescent TRPML3 assay (as for TRPML1). In outline:
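HEK-293 Trex cells with tet-inducible (0.5 ug/mL doxycycline, overnight) surface-targeted mutant channel, Fluo4-AM loaded, suspended in Ringer's with 10 mM calcium. Compounds tested 20 µM to 6 nM final, half-log steps, triplicate; fluorescence at ex 480/em 540 nm. EC50 by non-linear regression of percent activity versus plate controls.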

Sequence of human TRPML1 (Q9GZU1 whole entry L15A/L16A/L577A/L578A, form open): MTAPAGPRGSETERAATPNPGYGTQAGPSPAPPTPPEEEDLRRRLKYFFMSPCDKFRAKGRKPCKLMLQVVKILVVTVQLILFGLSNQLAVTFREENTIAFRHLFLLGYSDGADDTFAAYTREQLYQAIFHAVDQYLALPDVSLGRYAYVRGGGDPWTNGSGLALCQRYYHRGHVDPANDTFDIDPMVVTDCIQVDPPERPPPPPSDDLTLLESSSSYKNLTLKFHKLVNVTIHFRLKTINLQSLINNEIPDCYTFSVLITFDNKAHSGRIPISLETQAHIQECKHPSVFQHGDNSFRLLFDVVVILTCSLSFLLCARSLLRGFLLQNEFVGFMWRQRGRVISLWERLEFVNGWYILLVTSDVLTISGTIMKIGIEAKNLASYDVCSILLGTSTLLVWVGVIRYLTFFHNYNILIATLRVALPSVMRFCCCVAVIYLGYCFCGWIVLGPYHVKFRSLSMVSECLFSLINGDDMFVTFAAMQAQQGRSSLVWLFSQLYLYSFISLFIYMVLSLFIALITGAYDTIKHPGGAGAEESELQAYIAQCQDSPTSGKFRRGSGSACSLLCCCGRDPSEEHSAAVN

With `C[C@H]1CN(C(=O)[C@H](F)C(C)(C)C)CCN1c1ncnc2c1c(C1CC1)cn2-c1cc(C#N)ccn1` (single isomer, unassigned) [Compound 202], the EC50 (in general, the concentration needed to bring the measured effect to its halfway point) is below 100 nM at human TRPML1 (Table 3, compounds 201-283); below 100 nM on TRPML2 (Table 3, compounds 201-283); below 100 nM on TRPML3 (Table 3, compounds 201-283).

As for `C[C@H]1CN(C(=O)[C@@H](F)C(C)(C)C)CCN1c1ncnc2c1c(C1CC1)cn2-c1cc(C#N)ccn1` (single isomer, unassigned) [Compound 203], the EC50 at human TRPML1 (Table 3, compounds 201-283) was below 100 nM; at TRPML2 (Table 3, compounds 201-283) it was below 100 nM; at TRPML3 (Table 3, compounds 201-283) it was below 100 nM.

Turning to `[2H]C([2H])([2H])C([2H])(C(=O)N1C[C@H](C)N(c2ncnc3c2c(-c2ccccc2F)cn3-c2cc(C#N)ccn2)C[C@H]1C)C([2H])([2H])[2H]` (single isomer, unassigned) [Compound 233], the EC50 on TRPML2 (Table 3, compounds 201-283) is below 100 nM; at TRPML3 (Table 3, compounds 201-283), below 100 nM.

Consider `[2H]C([2H])([2H])C(C(=O)N1C[C@H](C)N(c2ncnc3c2c(-c2ccccc2F)cn3-c2cc(C#N)ccn2)C[C@H]1C)C([2H])([2H])[2H]` (single isomer, unassigned) [Compound 234], for which the EC50 on TRPML2 (Table 3, compounds 201-283) is 100 to 500 nM; at TRPML3 (Table 3, compounds 201-283), below 100 nM.

For the compound `[2H]C([2H])([2H])[C@@H]1CN(c2ncnc3c2c(-c2ccccc2F)cn3-c2cc(C#N)ccn2)[C@@H](C)CN1C(=O)C(C)C` (single isomer, unassigned) [Compound 281], the EC50 on TRPML2 (Table 3, compounds 201-283) fell in the range of 500 to 2000 nM; on TRPML3 (Table 3, compounds 201-283), 100 to 500 nM.

Consider `CC(C)C(=O)N1CCN(c2ncnc3c2c(-c2ccccc2F)cn3-c2cc(C#N)ccn2)[C@@H](C)C1` [Compound 102, (S)-2-(5-(2-fluorophenyl)-4-(4-isobutyryl-2-methylpiperazin-1-yl)-7H-pyrrolo[2,3-d]pyrimidin-7-yl)isonicotinonitrile], for which the 50% effective concentration (EC50) was below 100 nM on human TRPML1 (Table 3, compounds 101-177); 100 to 500 nM at TRPML2 (Table 3, compounds 101-177); below 100 nM at TRPML3 (Table 3, compounds 101-177).

Take `C[C@H]1CN(C(=O)C(C)(C)C)CCN1c1ncnc2c1c(-c1ccccc1F)cn2-c1cc(C#N)ccn1` [Compound 103, (S)-2-(5-(2-fluorophenyl)-4-(2-methyl-4-pivaloylpiperazin-1-yl)-7H-pyrrolo[2,3-d]pyrimidin-7-yl)isonicotinonitrile]: the EC50 on human TRPML1 (Table 3, compounds 101-177) was below 100 nM; at TRPML2 (Table 3, compounds 101-177) it was below 100 nM; on TRPML3 (Table 3, compounds 101-177), below 100 nM.

As to `C[C@H]1CN(C(=O)C(C)(C)C)CCN1c1ncnc2c1c(C1CC1)cn2-c1cc(C#N)ccn1` [Compound 104, (S)-2-(5-cyclopropyl-4-(2-methyl-4-pivaloylpiperazin-1-yl)-7H-pyrrolo[2,3-d]pyrimidin-7-yl)isonicotinonitrile], the EC50 on human TRPML1 (Table 3, compounds 101-177) is below 100 nM; at TRPML2 (Table 3, compounds 101-177), 500 to 2000 nM; on TRPML3 (Table 3, compounds 101-177), below 100 nM.

As to `CC(C)C(=O)N1CCN(c2ncnc3c2c(-c2ccccc2F)cn3-c2cc(C#N)ccn2)C[C@H]1C` [Compound 107, (R)-2-(5-(2-fluorophenyl)-4-(4-isobutyryl-3-methylpiperazin-1-yl)-7H-pyrrolo[2,3-d]pyrimidin-7-yl)isonicotinonitrile], the EC50 was below 100 nM at human TRPML1 (Table 3, compounds 101-177); 100 to 500 nM on TRPML2 (Table 3, compounds 101-177); below 100 nM on TRPML3 (Table 3, compounds 101-177).

As for `Cc1cn(-c2cc(C(F)(F)F)ccn2)c2ncnc(N3C[C@@H](C)N(C(=O)C(C)(C)C)C[C@@H]3C)c12` [Compound 245, 1-((2R,5S)-2,5-dimethyl-4-(5-methyl-7-(4-(trifluoromethyl)pyridin-2-yl)-7H-pyrrolo[2,3-d]pyrimidin-4-yl)piperazin-1-yl)-2,2-dimethylpropan-1-one], the EC50 on human TRPML1 (Table 3, compounds 201-283) is below 100 nM; at TRPML3 (Table 3, compounds 201-283), 100 to 500 nM.

As for `CC(C)C(=O)N1C[C@H](C)N(c2ncnc3c2c(C2CCC2)cn3-c2cccc(F)c2)C[C@H]1C` [Compound 248, 1-((2R,5S)-4-(5-cyclobutyl-7-(3-fluorophenyl)-7H-pyrrolo[2,3-d]pyrimidin-4-yl)-2,5-dimethylpiperazin-1-yl)-2-methylpropan-1-one], the EC50 was above 2000 nM on human TRPML1 (Table 3, compounds 201-283) and above 2000 nM on TRPML3 (Table 3, compounds 201-283).

Turning to `C[C@@H]1CN(c2ncnc3c2c(C2CCC2)cn3-c2cccc(F)c2)[C@@H](C)CN1C(=O)C1(F)CC1` [Compound 249, ((2R,5S)-4-(5-cyclobutyl-7-(3-fluorophenyl)-7H-pyrrolo[2,3-d]pyrimidin-4-yl)-2,5-dimethylpiperazin-1-yl)(1-fluorocyclopropyl)methanone], the EC50 was 100 to 500 nM at human TRPML1 (Table 3, compounds 201-283) and 500 to 2000 nM at TRPML3 (Table 3, compounds 201-283).

Consider `C[C@@H]1CN(c2ncnc3c2c(C2CCC2)cn3-c2cccc(Cl)c2)[C@@H](C)CN1C(=O)C1(F)CC1` [Compound 254, ((2R,5S)-4-(7-(3-chlorophenyl)-5-cyclobutyl-7H-pyrrolo[2,3-d]pyrimidin-4-yl)-2,5-dimethylpiperazin-1-yl)(1-fluorocyclopropyl)methanone], for which the EC50 on human TRPML1 (Table 3, compounds 201-283) was in the range of 500 to 2000 nM; at TRPML3 (Table 3, compounds 201-283), 500 to 2000 nM.

As for `CC(C)C(=O)N1CCN(c2ncnc3c2c(N2CCC2)cn3-c2cc(C#N)ccn2)C[C@H]1C` [Compound 273, (R)-2-(5-(azetidin-1-yl)-4-(4-isobutyryl-3-methylpiperazin-1-yl)-7H-pyrrolo[2,3-d]pyrimidin-7-yl)isonicotinonitrile], the EC50 at human TRPML1 (Table 3, compounds 201-283) is below 100 nM; on TRPML3 (Table 3, compounds 201-283) it was below 100 nM.

Take `CCCC(=O)N1CCN(c2ncnc3c2c(N2CCC2)cn3-c2cc(C#N)ccn2)C[C@H]1C` [Compound 274, (R)-2-(5-(azetidin-1-yl)-4-(4-butyryl-3-methylpiperazin-1-yl)-7H-pyrrolo[2,3-d]pyrimidin-7-yl)isonicotinonitrile]: the EC50 at human TRPML1 (Table 3, compounds 201-283) is below 100 nM; at TRPML3 (Table 3, compounds 201-283), below 100 nM.

Take `CC(C)C(=O)N1C[C@H](C)N(c2ncnc3c2c(N2CCC2)cn3-c2cc(C#N)ccn2)C[C@H]1C` [Compound 275, 2-(5-(azetidin-1-yl)-4-((2S,5R)-4-isobutyryl-2,5-dimethylpiperazin-1-yl)-7H-pyrrolo[2,3-d]pyrimidin-7-yl)isonicotinonitrile]: the EC50 on human TRPML1 (Table 3, compounds 201-283) is below 100 nM; at TRPML3 (Table 3, compounds 201-283), 100 to 500 nM.
